Assay results: patent publication US6713475B2, “Tricyclic benzodiazepines as vasopressin receptor antagonists” (Ortho-McNeil Pharmaceutical, Inc., priority 1999, dated 2004)
Several values for one entry are separate records, joined by “and”; a condition that tells them apart may be missing. Identical values can stand only once.

Legend:
[1] = molecular target: V2 (Homo sapiens, UniProt P30518); assay: In vitro recombinant vasopressin receptor binding assay (V2 Bdg), displacement of 3H-arginine vasopressin; design: expressed in transfected cells; host or cells: HEK-293; conditions: for IC50: membrane with cloned human V-2 receptor (HEK-293); for inhibition at 0.1 µM: read-out: V2 Bdg % inh; for V2 Bdg % inh: 0.1 uM, printed in parentheses in place of IC50
Method: (§1) In vitro Recombinant Vasopressin Receptor Binding Assay
Compounds were assessed for their ability to displace ^3H-arginine vasopressin from the human V-1 or V-2 receptor in HEK-293 cells. […] Into wells of 96-well round bottom polypropylene plates were added buffer, test compound, membrane (containing cloned human V-1 or V-2 receptor), and ^3H-vasopressin. The reaction plates were allowed to sit at room temperature for one hour. The samples were filtered through Unifilter GF/C plates (presoaked in 0.3 polyethyleneimine). The plates were washed 5 times with cold physiological saline containing 0.05% Tween 20. After drying, the bottom of the filter plates were sealed and 0.025 ml of Microscint-20 was added to each filter. The top of the plate was sealed, and the plate was counted.

[2] = molecular target: T1, human V-1 receptor (Homo sapiens, UniProt P37288); assay: In vitro recombinant vasopressin receptor binding assay (V1 Bdg), displacement of 3H-arginine vasopressin; conditions: for inhibition at 0.1 µM: read-out: V1 Bdg (% inh, 0.1 uM)
T1 construct: expressed in transfected cells; host or cells: HEK-293
Method: as §1
Compounds were assessed for their ability to displace ^3H-arginine vasopressin from the human V-1 or V-2 receptor in HEK-293 cells. Assay buffer is 50 mM Tris-Cl, 5 mM MgCl2, 0.1% BSA (pH 7.5) containing 5 ug/ml of aprotinin, leupeptin, pepstatin, 50 ug/ml bacitracin, and 1 mM Pefabloc. ^3H-vasopressin is ^3H-arginine-8-vasopressin (68.5 Ci/mmol, final concentration in assay is 0.65-0.75 nM). Into wells of 96-well round bottom polypropylene plates were added buffer, test compound, membrane (containing cloned human V-1 or V-2 receptor), and ^3H-vasopressin. The reaction plates were allowed to sit at room temperature for one hour. The samples were filtered through Unifilter GF/C plates (presoaked in 0.3 polyethyleneimine). The plates were washed 5 times with cold physiological saline containing 0.05% Tween 20. After drying, the bottom of the filter plates were sealed and 0.025 ml of Microscint-20 was added to each filter. The top of the plate was sealed, and the plate was counted. Non-specific binding was determined by the addition of 1.25 uM arginine-8-vasopressin in those wells.

T1 sequence (P37288 whole entry): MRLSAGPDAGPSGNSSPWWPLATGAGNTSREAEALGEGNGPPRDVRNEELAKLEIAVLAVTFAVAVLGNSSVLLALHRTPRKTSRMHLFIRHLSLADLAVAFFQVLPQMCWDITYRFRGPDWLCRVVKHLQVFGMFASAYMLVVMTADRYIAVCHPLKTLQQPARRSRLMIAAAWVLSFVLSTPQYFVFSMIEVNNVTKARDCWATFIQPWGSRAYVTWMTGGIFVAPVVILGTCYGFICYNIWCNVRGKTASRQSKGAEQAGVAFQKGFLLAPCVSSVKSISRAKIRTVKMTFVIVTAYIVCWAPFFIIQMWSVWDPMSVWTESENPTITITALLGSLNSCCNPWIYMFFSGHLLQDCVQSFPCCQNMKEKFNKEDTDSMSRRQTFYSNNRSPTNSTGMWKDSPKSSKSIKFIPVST

Row | IC50 [1] [nM] | Molecule | V2 Bdg % inh [1] | further results
1 | 37 | CN1CCN2Cc3ccccc3N(C(=O)c3ccc(NC(=O)c4cc(F)ccc4-c4ccccc4)cc3Cl)CC2C1 (racemic) [Compound 100, (RS)-2-Phenyl-5-fluoro-N-[3-chloro-4-(1,3,4,12a-tetrahydro-2-methyl-6H-[1,4]pyrazino[4,3-a][1,4]-benzodiazepin-11(12H)-yl-carbonyl)phenyl]benzamide] | – | inhibition at 0.1 µM [1]: 72%; inhibition at 1 µM ([2]; 1 uM, read-out: V1 Bdg % inh): 6%
2 | 10 | Cc1ccc(-c2ccccc2C(=O)Nc2ccc(C(=O)N3CC4COCCN4Cc4ccccc43)c(C)c2)cc1 (racemic) [Compound 28, (RS)-2-(4-Methyl-phenyl)-N-[3-methyl-4-(1,3,4,12a-tetrahydro-6H-[1,4]oxazino[4,3-a][1,4]-benzodiazepin-11(12H)-yl-carbonyl)phenyl]benzamide] | – | inhibition at 0.1 µM [2]: 14%
3 | 13 | COc1cc(C(=O)N2CC3COCCN3Cc3ccccc32)ccc1NC(=O)c1ccccc1-c1ccccc1 (racemic) [Compound 15, (RS)-2-Phenyl-N-[2-methoxy-4-(1,3,4,12a-tetrahydro-6H-[1,4]oxazino[4,3-a][1,4]-benzodiazepin-11(12H)-yl-carbonyl)phenyl]benzamide] | – | inhibition at 0.1 µM [2]: 69%
4 | 11 | O=C(Nc1ccc(C(=O)N2C[C@H]3COCCN3Cc3ccccc32)c(Cl)c1)c1ccccc1-c1cccc(O)c1 [Compound 7, (S)-2-(3-Hydroxyphenyl)-N-[3-chloro-4-(1,3,4,12a-tetrahydro-6H-[1,4]oxazino[4,3-a][1,4]-benzodiazepin-11(12H)-yl-carbonyl)phenyl]benzamide] | – | inhibition at 0.1 µM [2]: 1%
5 | 4 | O=C(Nc1ccc(C(=O)N2CC3COCCN3Cc3ccccc32)c(Cl)c1)c1ccc(F)cc1-c1ccccc1 (racemic) [Compound 114, (RS)-2-Phenyl-4-fluoro-N-[3-chloro-4-(1,3,4,12a-tetrahydro-6H-[1,4]oxazino[4,3-a][1,4]-benzodiazepin-11(12H)-yl-carbonyl)phenyl]benzamide] | – | –
6 | 37 | COc1ccc(-c2ccccc2)c(C(=O)Nc2ccc(C(=O)N3CC4COCCN4Cc4ccccc43)c(Cl)c2)c1 (racemic) [Compound 116, (RS)-2-Phenyl-5-methoxy-N-[3-chloro-4-(1,3,4,12a-tetrahydro-6H-[1,4]oxazino[4,3-a][1,4]-benzodiazepin-11(12H)-yl-carbonyl)phenyl]benzamide] | – | –
7 | 6 | Cc1ccc(-c2ccccc2C(=O)Nc2ccc(C(=O)N3CC4COCCN4Cc4ccccc43)cc2)cc1 (racemic) [Compound 12, (RS)-2-(4-Methyl-phenyl)-N-[4-(1,3,4,12a-tetrahydro-6H-[1,4]oxazino[4,3-a][1,4]-benzodiazepin-11(12H)-yl-carbonyl)phenyl]benzamide] | – | –
8 | 32 | COc1cc(NC(=O)c2ccccc2-c2ccccc2)ccc1C(=O)N1CC2CSCCN2Cc2ccccc21 (racemic) [Compound 108, (RS)-2-Phenyl-N-[3-methoxy-4-(1,3,4,12a-tetrahydro-6H-[1,4]thiazino[4,3-a][1,4]-benzodiazepin-11(12H)-yl-carbonyl)phenyl)benzamide] | – | –
9 | 43 | COc1cc(C(=O)N2CC3CN(C)CCN3Cc3ccccc32)ccc1NC(=O)c1ccccc1-c1ccc(C)cc1 (racemic) [Compound 73, (RS)-2-(4-Methyl-phenyl)-N-[2-methoxy-4-(1,3,4,12a-tetrahydro-2-methyl-6H-[1,4]pyrazino[4,3-a][1,4]-benzodiazepin-11(12H)-yl-carbonyl)phenyl]benzamide] | – | inhibition at 0.1 µM [1]: 73%
10 | 7 | O=C(Nc1ccc(C(=O)N2CC3CSCCN3Cc3ccccc32)c(O)c1)c1ccccc1-c1ccccc1 (racemic) [Compound 109, (RS)-2-Phenyl-N-[3-hydroxy-4-(1,3,4,12a-tetrahydro-6H-[1,4]thiazino[4,3-a][1,4]-benzodiazepin-11(12H)-yl-carbonyl)phenyl]benzamide] | – | –

Second part, the molecule before the results:

Row | Molecule | IC50 [1] [nM] | V2 Bdg % inh [1] | further results
11 | (RS)-2-Methyl-3-chloro-N-[3-chloro-4-(1,3,4,12a-tetrahydro-2-methyl-6H-[1,4]pyrazino[4,3-a][1,4]-benzodiazepin-11(12H)-yl-carbonyl)phenyl]benzamide [Compound 95] | – | (38%/0.1 uM) | V1 Bdg % inh ([2]; 1 uM): (10%/1 uM)
12 | Cc1cccc(C(=O)Nc2ccc(C(=O)N3CC4CSCCN4Cc4ccccc43)c(Cl)c2)c1I (racemic) [Compound 42, (RS)-2-Iodo-3-methyl-N-[3-chloro-4-(1,3,4,12a-tetrahydro-6H-[1,4]thiazino[4,3-a][1,4]-benzodiazepin-11(12H)-yl-carbonyl)phenyl]benzamide] | – | (62%/0.1 uM) | V1 Bdg (% inh, 0.1 uM) ([2]; 0.1 uM): 0%
13 | COc1cc(C(=O)N2CC3CN(C)CCN3Cc3ccccc32)ccc1NC(=O)c1ccccc1-c1ccccc1 (racemic) [Compound 72, (RS)-2-Phenyl-N-[2-methoxy-4-(1,3,4,12a-tetrahydro-2-methyl-6H-[1,4]pyrazino[4,3-a][1,4]-benzodiazepin-11(12H)-yl-carbonyl)phenyl]benzamide] | – | (48%/0.1 uM) | V1 Bdg % inh ([2]; 1 uM): (6%/1 uM)
14 | COc1cc(C(=O)N2CC3CN(C)CCN3Cc3ccccc32)ccc1NC(=O)c1ccccc1C (racemic) [Compound 71, (RS)-2-Methyl-N-[2-methoxy-4-(1,3,4,12a-tetrahydro-2-methyl-6H-[1,4]pyrazino[4,3-a][1,4]-benzodiazepin-11(12H)-yl-carbonyl)phenyl]benzamide] | – | – | V1 Bdg % inh ([2]; 1 uM): (12%/1 uM)
15 | (RS)-2,3-Difluoro-N-[3-chloro-4-(1,3,4,12a-tetrahydro-2-methyl-6H-[1,4]pyrazino[4,3-a][1,4]-benzodiazepin-11(12H)-yl-carbonyl)phenyl]benzamide [Compound 101] | – | – | V1 Bdg % inh ([2]; 1 uM): (6%/1 uM)
16 | O=C(Nc1ccc(C(=O)N2C[C@H]3COCCN3Cc3ccccc32)c(Cl)c1)c1ccc(O)cc1-c1ccccc1 [Compound 6, (S)-2-Phenyl-4-hydroxy-N-[3-chloro-4-(1,3,4,12a-tetrahydro-6H-[1,4]oxazino[4,3-a][1,4]-benzodiazepin-11(12H)-yl-carbonyl)phenyl]benzamide] | – | – | inhibition at 0.1 µM [2]: 49%
17 | Cc1ccc(-c2ccccc2C(=O)Nc2ccc(C(=O)N3CC4CN(C)CCN4Cc4ccccc43)c(Cl)c2)cc1 (racemic) [Compound 66, (RS)-2-(4-Methyl-phenyl)-N-[3-chloro-4-(1,3,4,12a-tetrahydro-2-methyl-6H-[1,4]pyrazino[4,3-a][1,4]-benzodiazepin-11(12H)-yl-carbonyl)phenyl]benzamide] | – | (82%/0.1 uM) | –
18 | O=C(Nc1ccc(C(=O)N2CC3CN(Cc4ccccc4)CCN3Cc3ccccc32)cc1)c1ccccc1-c1ccccc1 (racemic) [Compound 57, (RS)-2-Phenyl-N-[4-(1,3,4,12a-tetrahydro-2-benzyl-6H-[1,4]pyrazino[4,3-a][1,4]-benzodiazepin-11(12H)-yl-carbonyl)phenyl]benzamide] | – | (25%/0.1 uM) | –
19 | CN1CCN2Cc3ccccc3N(C(=O)c3ccc(NC(=O)c4ccccc4F)cc3Cl)CC2C1 (racemic) [Compound 64, (RS)-2-Fluoro-N-[3-chloro-4-(1,3,4,12a-tetrahydro-2-methyl-6H-[1,4]pyrazino[4,3-a][1,4]-benzodiazepin-11(12H)-yl-carbonyl)phenyl]benzamide] | – | 0% and 5% | –
20 | O=C(Nc1ccc(C(=O)N2CC3CNCCN3Cc3ccccc32)cc1)c1ccccc1-c1ccccc1 (racemic) [Compound 58, (RS)-2-Phenyl-N-[4-(1,3,4,12a-tetrahydro-6H-[1,4]pyrazino[4,3-a][1,4]-benzodiazepin-11(12H)-yl-carbonyl)phenyl]benzamide] | – | (33%/0.1 uM) | –
21 | O=C(Nc1ccc(C(=O)N2CC3CSCCN3Cc3ccccc32)cc1)c1ccccc1-c1cccs1 (racemic) [Compound 52, (RS)-2-(2-Thienyl)-N-[4-(1,3,4,12a-tetrahydro-6H-[1,4]thiazino[4,3-a][1,4]-benzodiazepin-11(12H)-yl-carbonyl)phenyl]benzamide] | – | (36%/0.1 uM) | –
22 | Cc1csc(-c2ccccc2C(=O)Nc2ccc(C(=O)N3CC4COCCN4Cc4ccccc43)cc2)c1 (racemic) [Compound 54, (RS)-2-(4-Methyl-2-thienyl)-N-[4-(1,3,4,12a-tetrahydro-6H-[1,4]oxazino[4,3-a][1,4]-benzodiazepin-11(12H)-yl-carbonyl)phenyl]benzamide] | – | – | inhibition at 0.1 µM [1]: 57%
23 | Cc1cccc(C(=O)Nc2ccc(C(=O)N3CC4CN(C)CCN4Cc4ccccc43)c(Cl)c2)c1C (racemic) [Compound 62, (RS)-2,3-Dimethyl-N-[3-chloro-4-(1,3,4,12a-tetrahydro-2-methyl-6H-[1,4]pyrazino[4,3-a][1,4]-benzodiazepin-11(12H)-yl-carbonyl)phenyl]benzamide] | – | 28% and 48% | –
